According to US20140037685A1 (priority 2012, published 2014):
“Also recorded” adds a separate entry of the source.

Columns and labels:
[1] = system: Nlrp3; assay: IL-1β and LDH in intraperitoneal lavage after i.p. challenge; format: in vivo, mouse; conditions: C57BL/6 mice, agent injected intraperitoneally (LPS: high concentrations), no ATP
Description: (§1) FIG. 6A-6D. LPS triggers strong production of Th1 and Th2-associated IgG subtypes. IgG1 (A) and IgG2c (B) production in C57BL/6 mice 3 weeks after subcutaneous challenge with increasing amounts of LPS. (C) A combination of LPS and ATP triggers a strong IL-1β response in vitro and in vivo. Primary C57BL/6 macrophages were treated with 250 ng/ml LPS or PBS for 2 hours, followed by to 5 mM ATP in the presence or absence of the 40 μM Boc-D-CMK. IL-1β release was assessed by ELISA from supernatants. (D) C57BL/6 mice were i.p. primed with 1 ug LPS or PBS for 2 hours, followed by i.p. challenge with 100 mM ATP or PBS. IL-1β production in the intraperitoneal lavage was determined by ELISA 30 min after ATP/PBS challenge.
FIG. 11. Similar in vitro and in vivo profiles of LLOMe and LPS/ATP-treated macrophages. C57BL/6 mice were i.p. primed with 1 μg LPS or PBS for 2 hours, followed by i.p. challenge with 500 μl of PBS containing 100 mM ATP, 2 mM LLOMe, or PBS only. IL-1β production and LDH activity was determined from the intraperitoneal lavage by ELISA 30 min after challenge.
Prototypical Nlrp3 inducers trigger a strong IL-1β in vivo and production of Th1-specific antibodies in vivo. While the substantial difference in Nlrp3-signalling in vitro is shown, it was further chosen to investigate the ability of lysosome-disrupting agents and pyroptosis inducer to activate Nlrp3 in vivo. […]

[2] = system: Nlrp3; assay: IL-1β release into macrophage supernatants by ELISA; format: cell-based, mouse; conditions: for Effect of inhibitor on IL-1β secretion/release by all inducers tested: inducers alum, LLOMe, ATP, nigericin, 40 μM Boc-D-CMK or 100 μM CA-074-Me
Description: (§2) FIG. 1A-1B. Alum and LLOMe are poor inducers of inflammasome-associated cytokines. […] Macrophages were then exposed to increasing concentrations of alum, LLOMe, ATP, or nigericin for 4 hours, or alum for 6 hours, in the presence or absence of the 40 μM Boc-D-CMK or 100 μM CA-074-Me. IL-1β release was assessed by ELISA (A), and cell death was determined by CytotoxOne LDH activity assay (B) from supernatants. All PI measurements were taken in triplicate from representative experiment. FIG. 2. Alum and LLOMe cause depletion of caspase-1 and NLR-associated cytokines. […] Lysates were probed for pro-caspase-1, IL-18, and IL-1β, and supernatants were probed for IL-1β by immunoblotting. Data is representative of 3 experiments.
as §1, with “(D) C57BL/6 mice were i.p. primed with 1 ug LPS or PBS for 2 hours, followed by i.p. challenge with 100 mM ATP or PBS.” left out
Cell death assays and ELISAs. Necrosis was assessed by two methods: LDH release assays and propidium iodide (PI) exclusion. […] Fluorescence was measured using a Victor 2 plate reader from Perkin Elmer. LDH release was determined using the CytotoxOne kit from Promega, according to the manufacturer's instructions. […] The enzymatic assay was developed until signal was obtained from a positive control (300 μM hydrogen peroxide) and the reaction was stopped and measured on a Victor 2 plate reader. IL-1β Ready-Set-Go ELISA kits were purchased from eBioscience and were performed according to manufacturer's recommendations. IL-1β concentration was determined at 1:1 and 1:10 to ensure linear range. […] ELISAs were read on a Victor 2 plate reader from Perkin Elmer. […]

[3] = system: BALB/c-derived macrophages; assay: Flow cytometry of lysosome and membrane integrity (LysoTracker and PI); format: cell-based, mouse
Description: (§3) FIG. 5A-5C. Lysosome rupture precedes cell death by alum and LLOMe, but not pyroptosis inducers. (A) Confocal microscopy of lysosome rupture in macrophages treated with […], 2.5 mM LLOMe, or 15 μM nigericin in the absence or presence of 100 μM CA-074-Me. The cells were stained with Hoechst (blue), 20 MW FITC-Dextran (green), CellMask Orange (red), TO-PRO-3 (white). 2D-fluorescent intensity plots of FITC-dextran staining of representative cells derived from alum, LLOMe, and nigericin-treated cells. Flow cytometry analysis of LLOMe and LT-treated cells. BALB/c-derived macrophages were exposed to 2.5 mM LLOMe (B) or 500 ng/ml LT (C) and lysosome and membrane integrity were measured using LysoTracker and PI at different time points using flow cytometry.
To quantify these findings, lysosomal integrity was also analyzed by flow cytometry with the lysosomal pH-indicator LysoTracker and the vital stain propidium iodide (FIG. 5B and C). […] Intriguingly, protein degradation was concurrent with a loss of lysosome integrity 30 to 45 min after LLOMe exposure, and 4-6 hours after alum exposure (FIGS. 5A and 5B).

[4] = system: macrophages; assay: Confocal microscopy of lysosome rupture (fluorescent dextran) and plasma membrane integrity; format: cell-based, mouse
Description: as §3
Cathepsin-dependent lysosome rupture correlates with degradation of inflammatory proteins. […] Lysosome-disrupting agents caused caspase-1-independent cell death and broad protein degradation, while pyroptosis inducers caused caspase-1-dependent cell death and targeted IL-1β secretion. In order to directly investigate the role of lysosome rupture in Nlrp3 activation, two complementary methods were used to analyze lysosome integrity in macrophages challenged with both lysosome-destabilizing agents and potassium-efflux inducers. First, lysosomal integrity was measured by labeling vesicles in the endolysosomal pathway with fluorescent dextran. […] Intriguingly, no plasma membrane impairment (indicative of necrotic cell death) was detectable at this time point, but was observed only 6 hours post alum exposure (FIG. 5A). […] LLOMe destabilized lysosomes within 30 min, without impairment of plasma membranes. A loss of plasma membrane integrity was observed only after 60 min of LLOMe exposure, resulting in dextran release from these cells (FIG. 5A).

[5] = system: C57BL/6 macrophages; assay: 2D-DIGE of the cellular proteome of treated macrophages; format: cell-based, mouse; conditions: LPS-primed; 2.5 mM LLOMe or nigericin for 90 minutes
Text: FIG. 10. 2D-DIGE gel of proteins isolated from untreated, nigericin- and LLOMe-treated macrophages. […] Protein lysates from control, nigericin, and LLOMe treated cells were isolated, and subsequently labeled with Cy2, Cy3 and Cy5, respectively, and separated on a 2D-DIGE gel.
Broad protein degradation mediated by LLOMe—As lysosomal proteases are highly promiscuous, it was reasoned that alum- and LL-mediated lysosomal release of proteolytic proteins may not just degrade Nlrp3-associated proteins, but may also trigger degradation of a broad range of cytosolic proteins, and might go beyond the degradation of inflammatory proteins reported here. To examine effects of LLOMe on the cellular proteome, macrophages were challenged with these compounds and generated lysates. 2D-DIGE was used to determine the extent of damage inflicted in macrophages exposed to the lysosome-disrupting agent, LLOMe. […] These findings further highlight the different impact of lysosome-destabilizing agents and pyroptosis inducers on the cellular proteome on a macro-level.

[6] = system: pro-caspase-1, IL-18, and IL-1β; format: cell-based, mouse
[7] = system: C57BL/6 mice; assay: IgG1 and IgG2c production after immunization of mice; format: in vivo, mouse; conditions: immunized C57BL/6 mice; LPS 3 weeks after subcutaneous challenge
Description: as §1
It was sought to determine if this difference correlated with the observed difference in in vivo IL-1β activation. To test this hypothesis, C57BL/6 mice were immunized with alum, LLOMe, and LPS.

[8] = system: C57BL/6 macrophages; assay: Increasing CA-074-Me concentrations in LLOMe- or nigericin-challenged macrophages (PI exclusion, immunoblot); format: cell-based, mouse
[9] = system: bone marrow-derived murine macrophages; assay: Necrotic cell death (LDH release / propidium iodide exclusion) in macrophages; format: cell-based, mouse
Description: as §2
Cell death assays and ELISAs. Necrosis was assessed by two methods: LDH release assays and propidium iodide (PI) exclusion. PI exclusion assays were performed in a 96-well flat-bottom plate using phenol-red-free DMEM and added to wells to a final concentration 30 μM 10-min before the specified time point. Fluorescence was measured using a Victor 2 plate reader from Perkin Elmer. LDH release was determined using the CytotoxOne kit from Promega, according to the manufacturer's instructions. […] The enzymatic assay was developed until signal was obtained from a positive control (300 μM hydrogen peroxide) and the reaction was stopped and measured on a Victor 2 plate reader. IL-1β Ready-Set-Go ELISA kits were purchased from eBioscience and were performed according to manufacturer's recommendations. IL-1β concentration was determined at 1:1 and 1:10 to ensure linear range. […] ELISAs were read on a Victor 2 plate reader from Perkin Elmer.
Lysosome-disrupting agents induce potent cell death but poor IL-1β release. […] Towards this, bone marrow-derived murine macrophages were challenged with both lysosome disrupting and pyroptosis-inducing agents and measured the amount of IL-1β and LDH released into the supernatant as complementary read-outs for Nlrp3 activation. […]

[10] = LPS-primed macrophages, 40 μM Boc-D-CMK, LDH assay

COC(=O)[C@H](CC(C)C)NC(=O)[C@@H](N)CC(C)C [LLOMe, Leu-Leu-OMe]
IL-1β release in vivo [1]: poor release
LDH release in vivo [1]: significant release
IL-1β release ([2]; LPS-primed (250 ng/ml, 2 hours) murine macrophages challenged with the inducer, ELISA of supernatants): only minimal
Time to complete loss of lysosome integrity ([3]; 2.5 mM LLOMe, LysoTracker): ≤ 30 min
Time at which necrotic cell death was observed ([3]; 2.5 mM LLOMe, PI): 60 to 90 min
Time of protein degradation concurrent with loss of lysosome integrity ([3]; after LLOMe exposure): 30 to 45 min
Time at which loss of plasma membrane integrity was observed ([4]; 2.5 mM LLOMe): 60 min
Time to destabilized lysosomes, without impairment of plasma membranes ([4]; 2.5 mM LLOMe): ≤ 30 min
Degradation of cellular proteins (2D-DIGE) [5]: broad degradation
Cellular pro-caspase-1 levels [6]: significant depletion
Cytosolic levels of IL-18 and IL-1β [6]: dramatic decrease
Mature caspase-1 (p20) indicative of caspase-1 activation [6]: No mature caspase-1 (p20)
Processing of pro-caspase-1 (p45) into p10 and p20 [6]: substantial depletion of p45 without generating the p20 or p10 subunits
Release of mature IL-1β into the supernatant (immunoblot) [6]: no mature IL-1β
IgG1 / Th2 response [7]: polarized IgG1
IgG2c response (Th1) [7]: little induction

CO[C@@H]1C[C@@H](C[C@H]2CC[C@H](C)[C@H]([C@@H](C)C(=O)O)O2)O[C@]2(O[C@](C)([C@H]3CC[C@@](C)([C@@H]4O[C@@H]([C@H]5O[C@@](O)(CO)[C@H](C)C[C@@H]5C)C[C@@H]4C)O3)C[C@H]2C)[C@@H]1C [nigericin, Nigericin]
Timing of lysosome impairment relative to cell death ([4]; nigericin-treated cells (FIG. 5A)): occurred only after cell death induction
Degradation of cellular proteins (2D-DIGE) [5]: did not trigger any apparent degradation
Caspase-1 activation and Nlrp3 signaling: mature IL-1β in the supernatant ([8]; LPS-primed C57BL/6 macrophages (FIG. 4B)): triggered caspase-1 activation and Nlrp3 signaling
Processing of pro-caspase-1 (p45) into p10 and p20 [6]: minimal decrease of p45 with a notable increase of p20 or p10

Boc-D-CMK
Effect of inhibitor on IL-1β secretion/release by all inducers tested [2]: blocked
Effect of inhibitor on alum and LLOMe-induced necrotic cell death [9, 10]: no impact
Effect of inhibitor on cell death mediated by ATP and nigericin [9, 10]: prevented

CCCNC(=O)[C@H]1O[C@@H]1C(=O)N[C@H](C(=O)N1CCC[C@H]1C(=O)OC)[C@@H](C)CC [CA-074-Me]
Effect of inhibitor on IL-1β secretion/release by all inducers tested [2]: blocked
Effect of inhibitor on lysosomal release of dextran from alum and LLOMe-treated macrophages ([4]; 100 μM CA-074-Me): blocked
Effect of inhibitor on necrotic cell death mediated by all agents/inducers tested ([9]; alum, LLOMe, ATP, nigericin, 100 μM CA-074-Me): blocked necrosis
Effect of increasing inhibitor concentrations on cell death and drop in inflammatory proteins in LLOMe-treated macrophages ([8]; 2.5 mM LLOMe, LPS-primed): blocked both, cell death and the drop in inflammatory proteins
Effect of inhibitor (at concentrations that blocked cell death) on release of processed IL-1β by Nlrp3 inducers ([8]; nigericin (and ATP), LPS-primed): prevented the release of processed IL-1β
Effect of inhibitor on alum and LLOMe-mediated drop/degradation of proinflammatory proteins [6]: prevented the drop; also recorded: blocked
